We go through 1 compound from US20130129626A1, “IN VIVO IMAGING AGENTS” (H[…] LIMITED, priority 2006, published 2013).

For data set [1], the target named is T1, CCR5 (Homo sapiens, UniProt P51681).
T1 construct: expressed in transfected cells; host or cells: CHO-K1
As to the kind of experiment: CCR5 binding assay ([125I]-MIP-1β displacement). As to the method: CCR5 binding assay was performed under the following conditions, according to a method that was adapted from the literature [Samson et al., J. Biol. Chem., 272, 24934-41 (1997)].
Thus, Compound 8 was incubated for 2 hours at 25° C. in 50 mM HEPES, pH7.4 containing 1 mM CaCl2, 0.5% BSA, 5 mM MgCl2 and 1% DMSO with Human recombinant CHO-K1 cells in the presence of 0.1 nM [^125I]-MIP-1β, where MIP-1β is Macrophage Inflammatory Protein 1β.

Data set [2] deals with T2, CCR2B (Homo sapiens, UniProt P41597).
T2 construct: expressed in transfected cells; host or cells: CHO-K1
T2 sequence (P41597 1-360 isoform P41597-2): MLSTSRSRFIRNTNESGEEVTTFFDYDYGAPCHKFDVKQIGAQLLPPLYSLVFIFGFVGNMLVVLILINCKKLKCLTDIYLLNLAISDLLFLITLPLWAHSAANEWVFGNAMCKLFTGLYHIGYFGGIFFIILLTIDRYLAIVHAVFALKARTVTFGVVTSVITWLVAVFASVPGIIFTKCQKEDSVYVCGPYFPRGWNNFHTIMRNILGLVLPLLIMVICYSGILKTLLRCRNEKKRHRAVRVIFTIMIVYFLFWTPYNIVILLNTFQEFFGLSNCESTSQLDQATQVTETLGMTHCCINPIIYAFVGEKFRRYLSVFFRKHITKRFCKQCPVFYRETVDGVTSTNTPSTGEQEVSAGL
The data set can be described thus: CCR2B binding assay ([125I]-MCP-1 displacement). As to the method:
CCR2B binding assay was performed under the following conditions, according to a method that was adapted from the literature [Gong et al., J. Biol. Chem., 272, 11682-5 (1997); Moore et al., J. Leukoc. Biol., 62, 911-5 (1997)].
Thus, Compound 8 was incubated for 1 hour at 25° C. in 25 mM HEPES, pH7.4 containing 1 mM CaCl2, 0.5% BSA, 5 mM MgCl2, 0.1% NaN3 and 1% DMSO with Human recombinant CHO-K1 cells in the presence of 0.1 nM [^125I]-MCP-1. MCP-1 is monocyte chemoattractant protein (the ligand of CCR2).

The target of data set [3] is T3, CCR1 (Homo sapiens, UniProt P32246).
T3 construct: expressed in transfected cells; host or cells: CHO-K1
T3 sequence (P32246 1-355): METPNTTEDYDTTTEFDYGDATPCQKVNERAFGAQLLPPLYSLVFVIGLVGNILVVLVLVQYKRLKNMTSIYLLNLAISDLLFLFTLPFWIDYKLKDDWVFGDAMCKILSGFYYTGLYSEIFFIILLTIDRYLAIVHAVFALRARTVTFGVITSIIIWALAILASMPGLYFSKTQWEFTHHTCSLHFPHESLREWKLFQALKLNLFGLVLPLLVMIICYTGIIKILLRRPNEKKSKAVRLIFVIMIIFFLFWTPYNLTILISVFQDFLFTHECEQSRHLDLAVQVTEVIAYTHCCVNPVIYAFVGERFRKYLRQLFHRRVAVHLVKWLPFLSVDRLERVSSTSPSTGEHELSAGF
As to the kind of experiment: CCR1 binding assay ([125I]-MIP-1α displacement). Here is the method:
The CCR1 binding assay was performed under the following conditions, according to a method that was adapted from the literature [Ben-Baruch et al., J. Biol. Chem., 270(38), 22123-8 (1995); Pease et al., J. Biol. Chem., 273(32), 19972-6 (1998)].
Thus, Compound 8 was incubated for 3 hours at 25° C. in 50 mM HEPES, pH7.4 containing 1 mM CaCl2, 0.5% BSA, 5 mM MgCl2 and 1% DMSO with Human recombinant CHO-K1 cells in the presence of 0.02 nM [^125I]-MIP-1α. MIP-1α is Macrophage Inflammatory Protein 1α (ligand of CCR1 and CCR5).

A short description of data set [4]: Parallel Artificial Membrane Permeability Assay (PAMPA). The format is in vitro ADME. The note with it: prediction of blood brain barrier penetration by passive diffusion, high Pe>4.0×10^-06, low Pe<2.0×10^-06 cm/sec. As to the method: The permeability of the CCR compounds was measured in a Parallel Artificial Membrane Permeability Assay (PAMPA) which gives a prediction of the blood brain barrier penetration by passive diffusion [Di et al, Eur. J. Med. Chem., 38(3), 223-232 (2003)].
The commonly accepted classification ranges for this PAMPA assay are as follows: • High predicted passive BBB permeation: Pe>4.0×10^−06 cm/sec. • Low predicted passive BBB permeation: Pe<2.0×10^−06 cm/sec.
Uncertain prediction of BBB permeation: 2.0×10^−06 cm/sec<Pe<4.0×10^−06 cm/sec.

T1 sequence (P51681 whole entry): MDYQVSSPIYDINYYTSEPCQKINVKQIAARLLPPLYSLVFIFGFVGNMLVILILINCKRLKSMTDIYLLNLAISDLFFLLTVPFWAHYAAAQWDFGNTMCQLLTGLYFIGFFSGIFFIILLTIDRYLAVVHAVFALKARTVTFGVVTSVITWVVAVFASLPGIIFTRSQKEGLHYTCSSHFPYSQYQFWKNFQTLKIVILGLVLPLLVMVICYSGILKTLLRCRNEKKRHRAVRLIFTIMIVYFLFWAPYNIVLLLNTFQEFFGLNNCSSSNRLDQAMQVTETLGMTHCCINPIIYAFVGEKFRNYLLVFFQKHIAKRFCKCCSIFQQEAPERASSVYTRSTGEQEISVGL

In general, Ki refers to the equilibrium dissociation constant of an inhibitor or competing ligand from its target. In general, inhibition refers to the relative decrease from the control value, in per cent. For orientation: Papp means a coefficient for how fast a substance crosses the barrier. As for `Cc1ccc(N(CCCN2CCC(Cc3ccc(F)cc3)CC2)C(=O)C2CCN(C(=O)CF)CC2)cc1Cl` [Compound 8], in data set [1], the affinity corresponds to a Ki of 0.79 nM. Besides, the “selectivity for CCR5 over CCR1 and CCR2B (in words)” value in data set [1] (compared with CCR1 and CCR2B binding at 10 μM) is given as “selective for CCR5”. Besides, in data set [1] (summary statement of Example 6), the “CCR5 binding (in words)” value was “high affinity”. Besides, the “inhibition of the binding of MCP-1 to CCR2B” value in data set [2] (10 μM concentration, Human recombinant CHO-K1 cells, 0.1 nM [125I]-MCP-1, 1 hour at 25° C.) was “did not inhibit”. Also, the “CCR2B binding (in words)” value in data set [2] (summary statement of Example 6) was “does not bind”. The inhibition at 10 µM in data set [3] (10 μM Compound 8, Human recombinant CHO-K1 cells, 0.02 nM [125I]-MIP-1α, 3 hours at 25° C.) was 32%. In addition, the “CCR1 binding (in words)” value in data set [3] (summary statement of Example 6) is recorded as “does not bind”. The Papp in data set [4] is 6.8 ×10⁻⁶ cm/s.
